Data reported in patent US11021469B2, “Indoline sulfonamide inhibitors of DapE and NDM-1 and use of the same” (priority 2014, dated 2021).

molecular target: NDM-1 (Klebsiella pneumoniae, UniProt C7C422); assay: Inhibition of NDM-1 assay (CHROMACEF hydrolysis); assay type: biochemical; conditions: pH 7, read-out: % NMD-1 Inhibition (5 μM)
Description: The ability of the compounds described herein to inhibit NDM-1 was determined in the following way.
A Substrate Working Solution was prepared from CRHROMACEF (6 μM) and Tween-20 (0.02% v/v) in water. An Enzyme Working Solution was prepared with NDM-1 (0.5 μg/mL), Hepes (0.1 M), pH 7 and Tween-20 (0.02% v/v). An Inhibitor Working Solution was prepared from 50 mM of the inhibitor in DMSO. The final assay conditions were 1 mL, Hepes (50 mM), pH 7, Tween-20 (0.02% v/v), CHROMACEF (3 uM), Δ35 NDM-1 (0.25 μg/mL). Extra zinc was omitted from these assays because extra ZnSO4 interferes with the metal binding groups in inhibitors.
An aliquot of the Inhibitor Working Solution was added to a polystyrene disposable cuvette to achieve a final concentration of 0-50 μM (in 1 mL final). Supplemental DMSO was added to reach a final volume of 4 μL. NDM-1 Working Solution (0.05 mL) was added to the cuvette and the inhibitor and enzyme were allowed to incubate for about 20 minutes. The reaction was initiated by added 0.5 mL Substrate Working Solution. The solution was mixed quickly, but gently to avoid bubble formation. CHROMACEF […] was recorded to start the reaction. The reaction was mixed fast, but gently. The change in absorbance ΔAbs442nm/min was measured for each inhibitor from the linear slope from each inhibitor concentration.

Chain of NDM-1 (C7C422 36-270 limits assumed): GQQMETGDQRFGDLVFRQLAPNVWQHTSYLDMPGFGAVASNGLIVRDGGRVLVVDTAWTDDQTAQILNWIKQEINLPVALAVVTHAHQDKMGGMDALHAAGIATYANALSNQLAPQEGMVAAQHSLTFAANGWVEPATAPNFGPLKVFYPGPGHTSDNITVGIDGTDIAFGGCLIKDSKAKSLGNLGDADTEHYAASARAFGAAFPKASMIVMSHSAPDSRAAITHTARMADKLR

Compound	inhibition at 5 µM [%]
CCNS(=O)(=O)c1cc(Br)cc2c1N(C(C)=O)CC2	16.8
CC(=O)N1CCc2cc(Br)cc(S(=O)(=O)NCCC(C)C)c21	62.7
CC(=O)N1CCc2cc(Br)cc(S(=O)(=O)NCc3ccccc3)c21	27.3
